pEC50, pIC50: −log10 of the molar value.
Assays:
[1] = system: AR / CBP ternary complex; experiment: Ternary complex formation assay (sandwich ELISA, AR capture / CBP detection) in VCaP cell lysates; format: cell-based; conditions: 1.5 hours treatment, sandwich ELISA (AR capture, CBP or p300 detection)
Procedure, shortened: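 Anti-AR (AR 441)-coated plates capture AR from lysates of VCaP cells grown ≥3 days at 50K/well in 5% charcoal-stripped FBS, dosed with bifunctional for 1.5 h and lysed 30 min at 4 °C. Co-captured CBP/p300 is probed with rabbit mAb and HRP anti-rabbit, then QuantaRed fluorescence (570/585) is read at 0, 5 and 15 min.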

[2] = system: VCaP cells; experiment: VCaP growth inhibition assay; format: cell-based; conditions: 30 pM R1881, 9 days, CTG
Procedure, shortened: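 Growth read by CTG luminescence after 9-day exposure to compound (final 100 nM–10 fM, 1:5 steps) plus 30 pM R1881, in phenol red-free DMEM with 5% CSS. Cells pre-incubated 72 h before dosing; IC50 by nonlinear 4-parameter regression.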

Structure (SMILES) | pEC50 [1] | pIC50 [2]
CC(=O)N1CCc2c(c(N3CCCc4cc(C#N)c(C(F)F)cc43)nn2C2CCN(CC3CCN(c4ncc(C(=O)NC5C(C)(C)C(Oc6ccc(C#N)c(Cl)c6)C5(C)C)cn4)CC3(C)C)CC2)C1 (stereo not drawn) [Compound 450, 2-[4-[[4-[5-acetyl-3-[6-cyano-7-(difluoromethyl)-3,4-dihydro-2H-quinolin-1-yl]-6,7-dihydro-4H-pyrazolo[4,3-c]pyridin-1-yl]-1-piperidyl]methyl]-3,3-dimethyl-1-piperidyl]-N-[3-(3-chloro-4-cyano-phenoxy)-2,2,4,4-tetramethyl-cyclobutyl]pyrimidine-5-carboxamide] | > 9.00 | 9.00 to 10.00
Cn1c(=O)n(C)c2cc(N3CCCc4cc(-c5ccc(CCC6CCN(c7ncc(C(=O)NC8C(C)(C)C(Oc9ccc(C#N)c(Cl)c9)C8(C)C)cn7)CC6)nc5)c(C(F)F)cc43)ccc21 (stereo not drawn) [Compound 233, N-[3-(3-chloro-4-cyano-phenoxy)-2,2,4,4-tetramethyl-cyclobutyl]-2-[4-[2-[5-[7-(difluoromethyl)-1-(1,3-dimethyl-2-oxo-benzimidazol-5-yl)-3,4-dihydro-2H-quinolin-6-yl]-2-pyridyl]ethyl]-1-piperidyl]pyrimidine-5-carboxamide] | 8.00 to 9.00 | < 7.00
COc1cc(OC2C(C)(C)C(NC(=O)c3ccc(N4CCC(CN5CCC(n6nc(N7CCCc8cc(-c9cnn(C)c9)c(C)cc87)c7c6CCN(C(C)=O)C7)CC5)C(C)(C)C4)cc3)C2(C)C)ccc1C#N (stereo not drawn) [Compound 447, 4-[4-[[4-[5-acetyl-3-[7-methyl-6-(1-methylpyrazol-4-yl)-3,4-dihydro-2H-quinolin-1-yl]-6,7-dihydro-4H-pyrazolo[4,3-c]pyridin-1-yl]-1-piperidyl]methyl]-3,3-dimethyl-1-piperidyl]-N-[3-(4-cyano-3-methoxy-phenoxy)-2,2,4,4-tetramethyl-cyclobutyl]benzamide] | > 9.00 | 9.00 to 10.00
CN1C(=O)CCc2cc(-c3cccc4cc(-c5ccc(CCC6CCN(c7ncc(C(=O)NC8C(C)(C)C(Oc9ccc(C#N)c(Cl)c9)C8(C)C)cn7)CC6)nc5)ncc34)ccc21 (stereo not drawn) [Compound 238, N-[3-(3-chloro-4-cyano-phenoxy)-2,2,4,4-tetramethyl-cyclobutyl]-2-[4-[2-[5-[8-(1-methyl-2-oxo-3,4-dihydroquinolin-6-yl)-3-isoquinolyl]-2-pyridyl]ethyl]-1-piperidyl]pyrimidine-5-carboxamide] | 7.00 to 8.00 | < 7.00
COc1cc(OC2C(C)(C)C(NC(=O)c3ccc(N4CCC(C(=O)N5CCC(n6nc(-c7cccc8cc(C9CC9)ncc78)c7c6CCN(C(C)=O)C7)CC5)CC4)cc3)C2(C)C)ccc1C#N (stereo not drawn) [Compound 256, 4-[4-[4-[5-acetyl-3-(3-cyclopropyl-8-isoquinolyl)-6,7-dihydro-4H-pyrazolo[4,3-c]pyridin-1-yl]piperidine-1-carbonyl]-1-piperidyl]-N-[3-(4-cyano-3-methoxy-phenoxy)-2,2,4,4-tetramethyl-cyclobutyl]benzamide] | > 9.00 | 9.00 to 10.00
COc1cc(OC2C(C)(C)C(NC(=O)c3ccc(N4CCC(C(=O)N5CCC(n6nc(-c7cccc8cc(C9CC9)c(C(F)F)cc78)c7c6CCN(C(C)=O)C7)CC5)CC4)cc3)C2(C)C)ccc1C#N (stereo not drawn) [Compound 257, 4-[4-[4-[5-acetyl-3-[6-cyclopropyl-7-(difluoromethyl)-1-naphthyl]-6,7-dihydro-4H-pyrazolo[4,3-c]pyridin-1-yl]piperidine-1-carbonyl]-1-piperidyl]-N-[3-(4-cyano-3-methoxy-phenoxy)-2,2,4,4-tetramethyl-cyclobutyl]benzamide] | > 9.00 | 9.00 to 10.00
C[C@@H]1CC(=O)Nc2cccc(-c3ccc4c(c3)c(-c3cnn(C)c3)nn4CCCOc3ncc(C(=O)NC4C(C)(C)C(Oc5ccc(C#N)c(Cl)c5)C4(C)C)cn3)c2N1 (stereo partly drawn) [Compound 49, N-[3-(3-chloro-4-cyano-phenoxy)-2,2,4,4-tetramethyl-cyclobutyl]-2-[3-[5-[(4R)-4-methyl-2-oxo-1,3,4,5-tetrahydro-1,5-benzodiazepin-6-yl]-3-(1-methylpyrazol-4-yl)indazol-1-yl]propoxy]pyrimidine-5-carboxamide] | < 7.00 | 7.00 to 9.00
CC(=O)N1CCc2c(c(N3CCCc4cc(-c5cnn(C)c5)c(C(F)F)cc43)nn2C2CCN(CCOc3ncc(C(=O)NC4C(C)(C)C(Oc5ccc(C#N)c(Cl)c5)C4(C)C)cn3)CC2)C1 (stereo not drawn) [Compound 89, 2-[2-[4-[5-acetyl-3-[7-(difluoromethyl)-6-(1-methylpyrazol-4-yl)-3,4-dihydro-2H-quinolin-1-yl]-6,7-dihydro-4H-pyrazolo[4,3-c]pyridin-1-yl]-1-piperidyl]ethoxy]-N-[3-(3-chloro-4-cyano-phenoxy)-2,2,4,4-tetramethyl-cyclobutyl]pyrimidine-5-carboxamide] | > 9.00 | 9.00 to 10.00
COc1cc(OC2C(C)(C)C(NC(=O)c3ccc(N4CC5(CCN(C6CCC(n7nc(N8CCCc9cc(-c%10cnn(C)c%10)c(C(F)F)cc98)c8c7CCN(C(C)=O)C8)CC6)CC5)C4)cc3)C2(C)C)ccc1C#N (stereo not drawn) [Compound 288, 4-[7-[4-[5-acetyl-3-[7-(difluoromethyl)-6-(1-methylpyrazol-4-yl)-3,4-dihydro-2H-quinolin-1-yl]-6,7-dihydro-4H-pyrazolo[4,3-c]pyridin-1-yl]cyclohexyl]-2,7-diazaspiro[3.5]nonan-2-yl]-N-[3-(4-cyano-3-methoxy-phenoxy)-2,2,4,4-tetramethyl-cyclobutyl]benzamide] | > 9.00 | ≥ 10.00
CC(=O)N1CCc2c(c(N3CCCc4cc(-c5cnn(C)c5)c(C(F)F)cc43)nn2C2CCN(CC3C(C)CN(c4ncc(C(=O)NC5C(C)(C)C(Oc6ccc(C#N)c(Cl)c6C)C5(C)C)cn4)CC3C)CC2)C1 (stereo not drawn) [Compound 460, 2-[4-[[4-[5-acetyl-3-[7-(difluoromethyl)-6-(1-methylpyrazol-4-yl)-3,4-dihydro-2H-quinolin-1-yl]-6,7-dihydro-4H-pyrazolo[4,3-c]pyridin-1-yl]-1-piperidyl]methyl]-3,5-dimethyl-1-piperidyl]-N-[3-(3-chloro-4-cyano-2-methyl-phenoxy)-2,2,4,4-tetramethyl-cyclobutyl]pyrimidine-5-carboxamide] | > 9.00 | ≥ 10.00
CC(=O)N1CCc2c(c(Nc3ccc(-c4cnn(C)c4)cc3F)nn2C2CN(CC3CCN(c4ncc(C(=O)NC5C(C)(C)C(Oc6ccc(C#N)c(Cl)c6)C5(C)C)cn4)CC3)C2)C1 (stereo not drawn) [Compound 4, 2-[4-[[3-[5-acetyl-3-[2-fluoro-4-(1-methylpyrazol-4-yl)anilino]-6,7-dihydro-4H-pyrazolo[4,3-c]pyridin-1-yl]azetidin-1-yl]methyl]-1-piperidyl]-N-[3-(3-chloro-4-cyano-phenoxy)-2,2,4,4-tetramethyl-cyclobutyl]pyrimidine-5-carboxamide] | < 7.00 | < 7.00
CC(=O)N1CCc2c(c(N3CCCc4cc(-c5cnn(C)c5)c(C(F)F)cc43)nn2C2CC3(CCN(C4CCN(c5ncc(C(=O)NC6C(C)(C)C(Oc7ccc(C#N)c(Cl)c7)C6(C)C)cn5)CC4)CC3)C2)C1 (stereo not drawn) [Compound 373, 2-[4-[2-[5-acetyl-3-[7-(difluoromethyl)-6-(1-methylpyrazol-4-yl)-3,4-dihydro-2H-quinolin-1-yl]-6,7-dihydro-4H-pyrazolo[4,3-c]pyridin-1-yl]-7-azaspiro[3.5]nonan-7-yl]-1-piperidyl]-N-[3-(3-chloro-4-cyano-phenoxy)-2,2,4,4-tetramethyl-cyclobutyl]pyrimidine-5-carboxamide] | > 9.00 | ≥ 10.00
CC(=O)N1CCc2c(c(N3CCCc4cc(-c5cnn(C)c5)c(Cl)cc43)nn2C2CCN(CC3CCN(c4ncc(C(=O)NC5C(C)(C)C(Oc6ccc(C#N)c(Cl)c6)C5(C)C)cn4)CC3)CC2)C1 (stereo not drawn) [Compound 25, 2-[4-[[4-[5-acetyl-3-[7-chloro-6-(1-methylpyrazol-4-yl)-3,4-dihydro-2H-quinolin-1-yl]-6,7-dihydro-4H-pyrazolo[4,3-c]pyridin-1-yl]-1-piperidyl]methyl]-1-piperidyl]-N-[3-(3-chloro-4-cyano-phenoxy)-2,2,4,4-tetramethyl-cyclobutyl]pyrimidine-5-carboxamide] | 8.00 to 9.00 | 9.00 to 10.00
COc1cc(OC2C(C)(C)C(NC(=O)c3ccc(C#CC4CC(N5CCC(n6nc(N7CCCc8cc(-c9cnn(C)c9)c(C(F)F)cc87)c7c6CCN(C(C)=O)C7)CC5)C4)cc3)C2(C)C)ccc1C#N (stereo not drawn) [Compound 294, 4-[2-[3-[4-[5-acetyl-3-[7-(difluoromethyl)-6-(1-methylpyrazol-4-yl)-3,4-dihydro-2H-quinolin-1-yl]-6,7-dihydro-4H-pyrazolo[4,3-c]pyridin-1-yl]-1-piperidyl]cyclobutyl]ethynyl]-N-[3-(4-cyano-3-methoxy-phenoxy)-2,2,4,4-tetramethyl-cyclobutyl]benzamide] | > 9.00 | 9.00 to 10.00
CC(=O)N1CCc2c(c(N3CCCc4cc(-c5cnn(C)c5)c(C(F)F)cc43)nn2C2CCN([C@@H]3CCN(c4ncc(C(=O)NC5C(C)(C)C(Oc6ccc(C#N)c(Cl)c6)C5(C)C)cn4)C3)CC2)C1 (stereo partly drawn) [Compound 335, 2-[(3R)-3-[4-[5-acetyl-3-[7-(difluoromethyl)-6-(1-methylpyrazol-4-yl)-3,4-dihydro-2H-quinolin-1-yl]-6,7-dihydro-4H-pyrazolo[4,3-c]pyridin-1-yl]-1-piperidyl]pyrrolidin-1-yl]-N-[3-(3-chloro-4-cyano-phenoxy)-2,2,4,4-tetramethyl-cyclobutyl]pyrimidine-5-carboxamide] | > 9.00 | 9.00 to 10.00
